In ChEMBL document CHEMBL1146473, “Tyromycic acids B-E, new lanostane triterpenoids from the mushroom Tyromyces fissilis” (J Nat Prod, 2004):
The source made the active and inactive calls. The calls are words filed in the database; no cut-off is given here.

Experiments:
[1] = system: Human immunodeficiency virus 1; experiment: Antiviral activity against HIV1 infected in human MT4 cells; type: functional, organism-based
[2] = system: Radical scavenging activity; experiment: Antioxidant activity assessed as DPPH radical scavenging activity; type: functional

SMILES	Activity [1]	Activity [2]
CC(=O)O[C@@H]1C=C2C(=CC[C@H]3C(C)(C)[C@@H](O)CC[C@]23C)[C@]2(C)CC[C@H]([C@H](C)CC/C=C(\C)C(=O)O)[C@@]12C	inactive	inactive
C/C(=C\CC[C@@H](C)[C@H]1CC[C@@]2(C)C3=CC[C@H]4C(C)(C)C(=O)CC[C@]4(C)C3=C[C@@H](O)[C@]12C)C(=O)O	inactive	inactive
CC(=O)O[C@@H]1C2=C(CC[C@H]3C(C)(C)C(=O)CC[C@]23C)[C@]2(C)CC[C@H]([C@H](C)CC/C=C(\C)C(=O)O)[C@@]2(C)[C@@H]1OC(C)=O	inactive	inactive
